Test results from the CheMixHub viscosity set.
± gives the uncertainty stated by the source.

Test: xn = mol fraction of the nth substance listed

OC(c1ccccc1)c1ccccc1 + CCCCCOC(C)=O
Conditions | viscosity [mPa·s]
298.15 K, 101 kPa, x2 = 0.5 | 1.496 ± 0.015

CCCCBr + CCCCO
viscosity [mPa·s], 101.33 kPa
Conditions | x2 = 0.1114 | x2 = 0.2168 | x2 = 0.3241 | x2 = 0.4255 | x2 = 0.5172 | x2 = 0.6158 | x2 = 0.7127 | x2 = 0.7911 | x2 = 0.8968
298.15 K | 0.63 ± 0.009 | 0.685 ± 0.009 | 0.759 ± 0.01 | 0.86 ± 0.011 | 0.983 ± 0.013 | 1.158 ± 0.014 | 1.394 ± 0.017 | 1.636 ± 0.02 | 2.046 ± 0.024
308.15 K | 0.554 ± 0.008 | 0.588 ± 0.008 | 0.638 ± 0.009 | 0.706 ± 0.009 | 0.793 ± 0.01 | 0.918 ± 0.012 | 1.086 ± 0.013 | 1.261 ± 0.015 | 1.581 ± 0.019
318.15 K | 0.495 ± 0.007 | 0.522 ± 0.008 | 0.561 ± 0.008 | 0.613 ± 0.008 | 0.679 ± 0.009 | 0.771 ± 0.01 | 0.899 ± 0.011 | 1.029 ± 0.013 | 1.264 ± 0.015

CCCCNCCCC + CCCCO
Conditions | viscosity [mPa·s]
298.15 K, 101.33 kPa, x1 = 0.0635 | 2.402
298.15 K, 101.33 kPa, x1 = 0.1073 | 2.317
298.15 K, 101.33 kPa, x1 = 0.1494 | 2.223
298.15 K, 101.33 kPa, x1 = 0.2108 | 2.071
298.15 K, 101.33 kPa, x1 = 0.2648 | 1.932
298.15 K, 101.33 kPa, x1 = 0.3259 | 1.78
298.15 K, 101.33 kPa, x1 = 0.3973 | 1.606
298.15 K, 101.33 kPa, x1 = 0.4697 | 1.447
298.15 K, 101.33 kPa, x1 = 0.5484 | 1.303
298.15 K, 101.33 kPa, x1 = 0.6286 | 1.172
298.15 K, 101.33 kPa, x1 = 0.7575 | 1.015
298.15 K, 101.33 kPa, x1 = 0.8182 | 0.962
298.15 K, 101.33 kPa, x1 = 0.8572 | 0.927
298.15 K, 101.33 kPa, x1 = 0.8972 | 0.888
298.15 K, 101.33 kPa, x1 = 0.923 | 0.883
303.15 K, 101 kPa, x1 = 0.01155 | 2.23 ± 0.015
303.15 K, 101 kPa, x1 = 0.01803 | 2.213 ± 0.015
303.15 K, 101 kPa, x1 = 0.02448 | 2.198 ± 0.015
303.15 K, 101 kPa, x1 = 0.03423 | 2.177 ± 0.014
303.15 K, 101 kPa, x1 = 0.04155 | 2.163 ± 0.014
303.15 K, 101 kPa, x1 = 0.04858 | 2.15 ± 0.014
303.15 K, 101 kPa, x1 = 0.05659 | 2.134 ± 0.014
303.15 K, 101 kPa, x1 = 0.06332 | 2.12 ± 0.014
303.15 K, 101 kPa, x1 = 0.1014 | 2.031 ± 0.014
303.15 K, 101.33 kPa, x1 = 0.0951 | 2.122 ± 0.025
303.15 K, 101.33 kPa, x1 = 0.1888 | 1.923 ± 0.023
303.15 K, 101.33 kPa, x1 = 0.2886 | 1.712 ± 0.02
303.15 K, 101.33 kPa, x1 = 0.3967 | 1.507 ± 0.018
303.15 K, 101.33 kPa, x1 = 0.4924 | 1.34 ± 0.016
303.15 K, 101.33 kPa, x1 = 0.5903 | 1.201 ± 0.015
303.15 K, 101.33 kPa, x1 = 0.6884 | 1.078 ± 0.013
303.15 K, 101.33 kPa, x1 = 0.7951 | 0.96 ± 0.012
303.15 K, 101.33 kPa, x1 = 0.8941 | 0.8638 ± 0.011
308.15 K, 101.33 kPa, x1 = 0.0635 | 1.828
308.15 K, 101.33 kPa, x1 = 0.1073 | 1.767
308.15 K, 101.33 kPa, x1 = 0.1494 | 1.698
308.15 K, 101.33 kPa, x1 = 0.2108 | 1.588
308.15 K, 101.33 kPa, x1 = 0.2648 | 1.485
308.15 K, 101.33 kPa, x1 = 0.3259 | 1.377
308.15 K, 101.33 kPa, x1 = 0.3973 | 1.255
308.15 K, 101.33 kPa, x1 = 0.4697 | 1.145
308.15 K, 101.33 kPa, x1 = 0.5484 | 1.042
308.15 K, 101.33 kPa, x1 = 0.6286 | 0.952
308.15 K, 101.33 kPa, x1 = 0.7575 | 0.841
308.15 K, 101.33 kPa, x1 = 0.8182 | 0.801
308.15 K, 101.33 kPa, x1 = 0.8572 | 0.776
308.15 K, 101.33 kPa, x1 = 0.8972 | 0.753
308.15 K, 101.33 kPa, x1 = 0.923 | 0.739
313.15 K, 101.33 kPa, x1 = 0.0951 | 1.68 ± 0.02
313.15 K, 101.33 kPa, x1 = 0.1888 | 1.532 ± 0.018
313.15 K, 101.33 kPa, x1 = 0.2886 | 1.38 ± 0.017
313.15 K, 101.33 kPa, x1 = 0.3967 | 1.225 ± 0.015
313.15 K, 101.33 kPa, x1 = 0.4924 | 1.106 ± 0.014
313.15 K, 101.33 kPa, x1 = 0.5903 | 0.9976 ± 0.013
313.15 K, 101.33 kPa, x1 = 0.6884 | 0.9063 ± 0.012
313.15 K, 101.33 kPa, x1 = 0.7951 | 0.8105 ± 0.01
313.15 K, 101.33 kPa, x1 = 0.8941 | 0.7369 ± 0.0097
318.15 K, 101.33 kPa, x1 = 0.0635 | 1.441
318.15 K, 101.33 kPa, x1 = 0.1073 | 1.395
318.15 K, 101.33 kPa, x1 = 0.1494 | 1.344
318.15 K, 101.33 kPa, x1 = 0.2108 | 1.263
318.15 K, 101.33 kPa, x1 = 0.2648 | 1.188
318.15 K, 101.33 kPa, x1 = 0.3259 | 1.108
318.15 K, 101.33 kPa, x1 = 0.3973 | 1.018
318.15 K, 101.33 kPa, x1 = 0.4697 | 0.938
318.15 K, 101.33 kPa, x1 = 0.5484 | 0.864
318.15 K, 101.33 kPa, x1 = 0.6286 | 0.798
318.15 K, 101.33 kPa, x1 = 0.7575 | 0.717
318.15 K, 101.33 kPa, x1 = 0.8182 | 0.687
318.15 K, 101.33 kPa, x1 = 0.8572 | 0.669
318.15 K, 101.33 kPa, x1 = 0.8972 | 0.65
318.15 K, 101.33 kPa, x1 = 0.923 | 0.642

CCOC(=O)C(=O)OCC + CCCCO
303.15 K, 101.33 kPa
Conditions | viscosity [mPa·s]
x1 = 0.1064 | 1.803 ± 0.011
x1 = 0.1924 | 1.613 ± 0.01
x1 = 0.2954 | 1.496 ± 0.009
x1 = 0.3832 | 1.438 ± 0.009
x1 = 0.5033 | 1.405 ± 0.009
x1 = 0.6097 | 1.405 ± 0.009
x1 = 0.6734 | 1.419 ± 0.009
x1 = 0.7804 | 1.461 ± 0.009
x1 = 0.9074 | 1.556 ± 0.01

COCCO + CCCCO
viscosity [mPa·s]
Conditions | 298.15 K | 308.15 K | 313.15 K | 318.15 K
100 kPa, x1 = 0.1009 | 2.27 ± 0.05 | – | 1.6 ± 0.03 | –
100 kPa, x1 = 0.2003 | 2.06 ± 0.04 | – | 1.48 ± 0.03 | –
100 kPa, x1 = 0.3003 | 1.91 ± 0.04 | – | 1.39 ± 0.03 | –
100 kPa, x1 = 0.4012 | 1.8 ± 0.04 | – | 1.32 ± 0.03 | –
100 kPa, x1 = 0.5008 | 1.72 ± 0.04 | – | 1.27 ± 0.03 | –
100 kPa, x1 = 0.6012 | 1.65 ± 0.03 | – | 1.24 ± 0.03 | –
100 kPa, x1 = 0.7006 | 1.61 ± 0.03 | – | 1.21 ± 0.03 | –
100 kPa, x1 = 0.7998 | 1.58 ± 0.03 | – | 1.19 ± 0.03 | –
100 kPa, x1 = 0.9 | 1.56 ± 0.03 | – | 1.18 ± 0.03 | –
101 kPa, x1 = 0.09765 | 2.212 ± 0.22 | 1.688 ± 0.17 | – | 1.266 ± 0.13
101 kPa, x1 = 0.1958 | 2.061 ± 0.21 | 1.583 ± 0.16 | – | 1.212 ± 0.12
101 kPa, x1 = 0.2945 | 1.948 ± 0.2 | 1.49 ± 0.15 | – | 1.172 ± 0.12
101 kPa, x1 = 0.3937 | 1.88 ± 0.19 | 1.355 ± 0.14 | – | 1.117 ± 0.11
101 kPa, x1 = 0.4934 | 1.813 ± 0.18 | 1.304 ± 0.13 | – | 1.063 ± 0.11
101 kPa, x1 = 0.5937 | 1.767 ± 0.18 | 1.248 ± 0.13 | – | 1.046 ± 0.1
101 kPa, x1 = 0.6944 | 1.723 ± 0.17 | 1.219 ± 0.12 | – | 1.036 ± 0.1
101 kPa, x1 = 0.7957 | 1.674 ± 0.17 | 1.191 ± 0.12 | – | 0.996 ± 0.1
101 kPa, x1 = 0.8976 | 1.622 ± 0.16 | 1.179 ± 0.12 | – | 0.9925 ± 0.1
101.33 kPa, x1 = 0.1184 | – | 1.694 ± 0.014 | – | –
101.33 kPa, x1 = 0.2345 | – | 1.551 ± 0.013 | – | –
101.33 kPa, x1 = 0.3377 | – | 1.443 ± 0.012 | – | –
101.33 kPa, x1 = 0.4484 | – | 1.361 ± 0.011 | – | –
101.33 kPa, x1 = 0.5476 | – | 1.305 ± 0.011 | – | –
101.33 kPa, x1 = 0.6312 | – | 1.265 ± 0.011 | – | –
101.33 kPa, x1 = 0.7363 | – | 1.229 ± 0.01 | – | –
101.33 kPa, x1 = 0.9104 | – | 1.195 ± 0.01 | – | –
